From paper PMC8079033, “Design, synthesis, anticancer evaluation, and molecular modelling studies of novel tolmetin derivatives as potential VEGFR-2 inhibitors and apoptosis inducers” (Journal of Enzyme Inhibition and Medicinal Chemistry, 2021)

Columns and labels:
[1] = system: leukaemia HL-60 (TB) cell line; experiment: MTT cytotoxicity assay; type: cell-based; conditions: Homo sapiens, mean ± SD of three experiments
[2] = system: colon (HCT-15) cell line; experiment: MTT cytotoxicity assay; type: cell-based; conditions: Homo sapiens, mean ± SD of three experiments
[3] = system: renal (UO-31) cell line; experiment: MTT cytotoxicity assay; type: cell-based; conditions: Homo sapiens, mean ± SD of three experiments
[4] = system: HUVECs; experiment: Wound healing assay (CytoSelect 24-well); type: cell-based, human; conditions: 72 h, 5b 2.4 µM, sunitinib 3.2 µM, control 97.03 ± 5.47
Description: Wound healing assay of compound 5b was evaluated using CytoSelect™ 24-Well Wound Healing Assay kit Catalog # CBA-120 according to manufacturer’s instructions. In brief, the 24-well plate wound healing inserts were allowed to warm up at room temperature for 10 minutes, then to each well, 500 µl of human umbilical vascular endothelial cells (HUVECs) suspension (1.0 × 10^6) in media containing 10% fetal bovine serum (FBS) was added. Cells were kept in a cell culture incubator until a monolayer form. Carefully the insert was removed from the well. The media were slowly aspirated and discarded from the wells. The wells were washed with media to remove dead cells and debris. Finally, the media were added to wells to keep cells hydrated, then wells were visualized under a light microscope. […] The percent closure of the cells into the wound field was measured.
One of the hallmarks of angiogenesis is cell migration, which happens in the earlier stages of the angiogenic cascade. A wound-healing assay was performed to investigate in vitro anti-angiogenic property of compound 5b.

[5] = system: caspase-3; experiment: Caspase-3 (active) ELISA in HCT-15 cells; type: cell-based, human
Description: The level of the apoptotic marker caspase-3 was assessed using Human Caspase-3 (active) ELISA Kit Catalog # KHO1091. The procedure of the used kit was done according to the manufacturer’s instructions. Allow all reagents to reach room temperature before use. Gently mix all liquid reagents prior to use. Add 100 µl of the standard diluent buffer to the zero standard wells. Add 100 µl of standards and controls or diluted samples to the appropriate microtiter wells. Incubate for 2 h at room temperature. […] Incubate for 1 h at room temperature. Add 100 µl anti-rabbit IgG HRP working solution to each well. Prepare the working dilution and incubate for 30 min at room temperature. Add 100 µl of stabilised chromogen to each well. The liquid in the wells will begin to turn blue. Incubate for 30 min at room temperature and in the dark. Add 100 µl of stop solution to each well. The solution in the wells should change from blue to yellow. Read the absorbance of each well at 450 nm. Read the plate within 2 h after adding the stop solution. Use a curve fitting software to generate the standard curve. Read the concentrations for unknown samples and controls from the standard curve.
(§1) The activation of caspases as caspase-3, caspase-8, and caspase-9 is responsible for apoptosis, particularly caspase-3 which is an effector caspase that has an important role in apoptosis. It is activated by one of the initiator caspases which results in the activation of certain enzymes responsible for the fragmentation of DNA[53]. Caspase-8 and -9 are initiator caspases that are responsible for caspase-3 activation.

[6] = system: caspase-8; experiment: Caspase-8 ELISA in HCT-15 cells; type: cell-based, human
Description: (§2) To measure caspase-8 and caspase-9 levels, DRG® Caspase-8 (human) (EIA-4863) ELISA and DRG® Caspase-9 (human) (EIA-4860) ELISA kits were used. Briefly, prepare cell extracts after induction of apoptosis. Resuspend the extracts in lysis buffer, incubate 60 min at room temperature, and centrifuge for 15 min. Wash the microwell strips with 400 µl wash buffer. Add 100 µl of sample diluent in duplicate to all standard wells. Add 100 µl of sample diluent in duplicate to the blank wells. Add 50 µl of sample diluent to the sample wells. Add 50 µl of each sample in duplicate to the sample wells. Add 50 µl of detection antibody to all wells and incubate at room temperature for 2 h. Add 100 µl of diluted anti-rabbit-IgG-HRP to all wells, including the blank wells. Pipette 100 µl of (3,3′,5,5′-Tetramethylbenzidine) TMB substrate solution to all wells and incubate at room temperature for about 15 min. Stop the enzyme reaction by pipetting 100 µl of stop solution into each well. Read absorbance of each microwell on a spectro-photometer using 450 nm. Determine the absorbance of both the samples and the standards.
as §1

[7] = system: caspase-9; experiment: Caspase-9 ELISA in HCT-15 cells; type: cell-based, human
Description: as §2, §1

Compound: CCN(CC)CCNC(=O)c1c(C)[nH]c(/C=C2\C(=O)Nc3ccc(F)cc32)c1C [Sunitinib, reference compound]
- IC50 [1]: 2.77 ± 0.14 µM
- IC50 [2]: 9.06 ± 0.49 µM
- IC50 [3]: 18.1 ± 0.95 µM
- Wound closure percentage [4]: 44.44 ± 2.51%
- Caspase-3 ([5]; mean ± SD of three experiments, control 0.073 ± 0.01): 0.641 ± 0.02 ng/mL
- increase in the level of caspase-3 ([5]; vs control): 8.780 fold
- Caspase-8 ([6]; mean ± SD of three experiments, control 0.377 ± 0.03): 1.284 ± 0.11 ng/mL
- increase in the level of caspase-8 ([6]; vs control): 3.406 fold
- Caspase-9 ([7]; mean ± SD of three experiments, control 3.225 ± 0.44): 27.26 ± 0.82 ng/mL
- increase in the level of caspase-9 ([7]; vs control): 8.453 fold
